One data set addresses T1, KLBP (Mus musculus, UniProt Q05816).
T1 sequence (Q05816 1-135): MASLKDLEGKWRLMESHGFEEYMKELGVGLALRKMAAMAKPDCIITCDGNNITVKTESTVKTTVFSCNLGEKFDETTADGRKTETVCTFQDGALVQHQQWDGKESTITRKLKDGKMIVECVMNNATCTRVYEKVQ
The following applies: displacement of 1,8-ANS from KLBP; cited from earlier work.

For another data set, the target named is T2, ALBP (Mus musculus, UniProt P04117).
T2 sequence (P04117 1-132): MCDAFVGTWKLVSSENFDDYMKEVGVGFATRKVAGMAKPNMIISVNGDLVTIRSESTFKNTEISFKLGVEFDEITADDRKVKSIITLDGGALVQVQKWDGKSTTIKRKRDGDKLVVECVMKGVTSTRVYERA
As to conditions: displacement of 1,8-ANS from ALBP, cited from earlier work; for Ki: read-out: apparent inhibitor constant (Ki).

The next data set deals with T3, CRBP (Homo sapiens, UniProt P09455).
T3 sequence (P09455 1-135): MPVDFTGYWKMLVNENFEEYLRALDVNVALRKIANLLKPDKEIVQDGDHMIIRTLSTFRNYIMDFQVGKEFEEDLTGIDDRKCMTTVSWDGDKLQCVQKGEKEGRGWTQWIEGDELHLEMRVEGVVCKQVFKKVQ
As to conditions: displacement of 1,8-ANS from CRBP; cited from earlier work.

In data set [1] the target is T4, serum vitamin D binding protein (Homo sapiens, UniProt P02774).
T4 sequence (P02774 17-474): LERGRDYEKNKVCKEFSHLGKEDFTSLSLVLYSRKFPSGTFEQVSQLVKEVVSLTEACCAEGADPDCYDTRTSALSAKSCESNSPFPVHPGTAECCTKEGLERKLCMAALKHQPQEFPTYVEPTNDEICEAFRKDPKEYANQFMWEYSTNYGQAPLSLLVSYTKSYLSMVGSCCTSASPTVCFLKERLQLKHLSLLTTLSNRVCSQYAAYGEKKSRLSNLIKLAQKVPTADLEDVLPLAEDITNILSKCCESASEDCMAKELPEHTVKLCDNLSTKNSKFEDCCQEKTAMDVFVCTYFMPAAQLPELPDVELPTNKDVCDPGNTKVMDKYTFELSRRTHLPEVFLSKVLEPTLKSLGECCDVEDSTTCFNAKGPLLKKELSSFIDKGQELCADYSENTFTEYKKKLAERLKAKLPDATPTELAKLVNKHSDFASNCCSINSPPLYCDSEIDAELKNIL
The following applies: binding to serum vitamin D binding protein, Langmuir isotherm, nonlinear least-squares fit; cited from earlier work.

Data set [2] addresses cellular retinoic acid-binding protein I (CRABPI) (Homo sapiens, UniProt P29762). As to conditions: read-out: apparent dissociation constant; probe binding to CRABPI; cited from earlier work.
The target of data set [3] is T5, keratinocyte lipid-binding protein (KLBP) (Mus musculus, UniProt Q05816).
T5 sequence (Q05816 1-135): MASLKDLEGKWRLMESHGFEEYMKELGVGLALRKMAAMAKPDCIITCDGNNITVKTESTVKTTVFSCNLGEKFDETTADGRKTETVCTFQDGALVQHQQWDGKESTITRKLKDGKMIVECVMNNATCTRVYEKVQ
As to conditions: read-out: apparent dissociation constant (Kd); probe binding to KLBP; cited from earlier work.

Data set [4] deals with T6, cellular retinol-binding protein (CRBP) (Homo sapiens, UniProt P09455).
T6 sequence (P09455 1-135): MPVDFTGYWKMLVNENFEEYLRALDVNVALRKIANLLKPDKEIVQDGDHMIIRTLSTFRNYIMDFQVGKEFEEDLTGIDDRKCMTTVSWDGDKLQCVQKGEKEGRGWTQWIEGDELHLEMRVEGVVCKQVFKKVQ
As to conditions: read-out: apparent dissociation constant; probe binding to CRBP; cited from earlier work.

The next data set addresses T7, SAH hydrolase (Homo sapiens, UniProt P23526).
T7 construct: made in house; host or cells: E. coli JM109, vector pKK223-3
Description: SAH hydrolase activity, hydrolytic direction (kinetic constants for SAH). As to conditions: substrate SAH. Format: biochemical. As to the method: The assay of SAH hydrolase activity in the hydrolytic direction was performed as described in Yuan et al., J. Biol. Chem., 271:28008-28016, 1996). The assay measures the hydrolysis of SAH into Ado and Hcy. The reaction product Hcy was derivatized by thiol specific reagent DTNB for colometric determination at 412 nm. The assay for SAH hydrolase in the synthetic direction was measured by the formation of SAH from substrate Ado and Hcy using HPLC (see, Yuan et al., J. Biol. Chem., 268:17030-17037 (1993). One unit of the enzyme activity was defined as the amount of enzyme that can hydrolyze or synthesize 1 μmole of SAH/min/mg.
Mutant SAH hydrolase (e.g., F302S) was specifically fluorescence labels on Cys421, an non-essential cysteine residue which is located on the surface of the protein that is not involved in substrate binding and catalysis. Cys421 residue is readily accessible by thiol reactive molecules, and can be modified without effect the binding affinity of the enzyme. Thiol specific reactive probes such as 7-diethylamino-3(4′-maleimidylphenyl)-4-methylcoumarin (CPM) can specifically label protein thiols. Mutant SAH hydrolase (F302S) (0.5 mg/ml) in 50 mM phosphate buffer, pH 7.2, was incubated with 2 mM of adenine to protect other thiols in the substrate binding site, followed by addition of CPM to final concentration of 50 μM. The reaction mixture was incubated at room temperature for 30 min. followed by gel filtration on a size exclusion column (Sephacryl S-300, […]×60 cm) to remove adenine and excess CPM. The CPM-labeled F302S mutant SAH hydrolase (2 mg/ml) was kept in 50 mM phosphate buffer containing 20% glycerol at −20° C. The comparison of Km (SAH) and Kcat (SAH) for wild type and mutant F302S is shown below in Table 10.

What is called Km is the substrate concentration at which the rate is half of its maximum.

T7 sequence (P23526 whole entry): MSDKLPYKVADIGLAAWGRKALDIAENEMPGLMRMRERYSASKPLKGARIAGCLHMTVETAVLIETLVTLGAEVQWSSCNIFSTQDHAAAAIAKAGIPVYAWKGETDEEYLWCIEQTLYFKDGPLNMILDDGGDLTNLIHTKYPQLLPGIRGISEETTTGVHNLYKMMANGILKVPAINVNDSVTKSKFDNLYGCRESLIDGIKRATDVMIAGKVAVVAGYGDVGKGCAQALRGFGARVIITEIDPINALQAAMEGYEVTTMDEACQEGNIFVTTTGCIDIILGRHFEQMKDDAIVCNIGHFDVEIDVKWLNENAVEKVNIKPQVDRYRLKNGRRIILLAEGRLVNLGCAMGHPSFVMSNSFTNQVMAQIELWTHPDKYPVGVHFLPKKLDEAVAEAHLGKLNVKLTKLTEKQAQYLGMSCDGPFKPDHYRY
Sequence of cellular retinoic acid-binding protein I (CRABPI) (P29762 whole entry, species assumed): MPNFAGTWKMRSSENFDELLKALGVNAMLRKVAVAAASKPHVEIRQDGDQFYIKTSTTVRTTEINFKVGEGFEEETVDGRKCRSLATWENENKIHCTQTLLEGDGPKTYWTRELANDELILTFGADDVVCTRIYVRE

On to `CC1=C(/C=C/C(C)=C/C=C/C(C)=C/C(=O)O)C(C)(C)CCC1` [all-trans-retinoic acid], for which the figures for the Ki at KLBP, on ALBP and on CRBP were 3.6 µM, 0.87 µM and 5.3 µM, respectively.
With `CC1=C(/C=C/C(C)=C/C=C/C(C)=C/CO)C(C)(C)CCC1` [all-trans-retinol], on KLBP, the “bound by KLBP” value was “neither octanoic acid nor all-trans-retinol were bound”. Moreover, the “displacement of the fluorophore from ALBP” value at ALBP is on record as “did not displace”.
`CCCCCCCC/C=C\CCCCCCCC(=O)O` [Oleic acid]: the Ki at KLBP is 0.42 µM; on ALBP it was 0.134 µM.
For the molecule `CCCCC/C=C\C/C=C\C/C=C\C/C=C\CCCC(=O)O` [arachidonic acid], the Ki on KLBP is 0.4 µM.
As for 25-hydroxyvitamin D, in data set [1], the Kd is 5.59 µM.
`CCCCCCCC(=O)O` [octanoic acid]: the “bound by KLBP” value on KLBP is reported as “neither octanoic acid nor all-trans-retinol were bound”. Also, the “displacement of the fluorophore from ALBP” value at ALBP is recorded as “did not displace”.
In the case of `O=S(=O)(O)c1cccc2cccc(Nc3ccccc3)c12` [1,8-ANS, 1-anilinonapthalene 8-sulfonic acid], the Kd in data set [2] is 25 µM; in data set [3] it was 0.53 µM; in data set [4], 7.7 µM.
Take vitamin D: the Kd in data set [1] is 91.7 µM.
Turning to `CC1=C(/C=C/C(C)=C/C=C/C(C)=C/C=O)C(C)(C)CCC1` [all-trans-retinal], the Ki at CRBP is 1.7 µM.

B1: wild type: Human placental SAH hydrolase, wild type, expressed in E. coli JM109 (protein, UniProt P23526 2-432, looked up)
Adenosylhomocysteinase: SDKLPYKVADIGLAAWGRKALDIAENEMPGLMRMRERYSASKPLKGARIAGCLHMTVETAVLIETLVTLGAEVQWSSCNIFSTQDHAAAAIAKAGIPVYAWKGETDEEYLWCIEQTLYFKDGPLNMILDDGGDLTNLIHTKYPQLLPGIRGISEETTTGVHNLYKMMANGILKVPAINVNDSVTKSKFDNLYGCRESLIDGIKRATDVMIAGKVAVVAGYGDVGKGCAQALRGFGARVIITEIDPINALQAAMEGYEVTTMDEACQEGNIFVTTTGCIDIILGRHFEQMKDDAIVCNIGHFDVEIDVKWLNENAVEKVNIKPQVDRYRLKNGRRIILLAEGRLVNLGCAMGHPSFVMSNSFTNQVMAQIELWTHPDKYPVGVHFLPKKLDEAVAEAHLGKLNVKLTKLTEKQAQYLGMSCDGPFKPDHYRY
As for B1, in the data set with SAH hydrolase, the “Kcat (SAH)” value is 3.8 S^−1 and the Michaelis constant (Km) came out at 7.9 µM.

B2: F302S: Mutant human SAH hydrolase, Phe 302 to Ser (protein, UniProt P23526 2-432, looked up, variant F302S)
Adenosylhomocysteinase: SDKLPYKVADIGLAAWGRKALDIAENEMPGLMRMRERYSASKPLKGARIAGCLHMTVETAVLIETLVTLGAEVQWSSCNIFSTQDHAAAAIAKAGIPVYAWKGETDEEYLWCIEQTLYFKDGPLNMILDDGGDLTNLIHTKYPQLLPGIRGISEETTTGVHNLYKMMANGILKVPAINVNDSVTKSKFDNLYGCRESLIDGIKRATDVMIAGKVAVVAGYGDVGKGCAQALRGFGARVIITEIDPINALQAAMEGYEVTTMDEACQEGNIFVTTTGCIDIILGRHFEQMKDDAIVCNIGHSDVEIDVKWLNENAVEKVNIKPQVDRYRLKNGRRIILLAEGRLVNLGCAMGHPSFVMSNSFTNQVMAQIELWTHPDKYPVGVHFLPKKLDEAVAEAHLGKLNVKLTKLTEKQAQYLGMSCDGPFKPDHYRY
For the molecule B2, in the data set with SAH hydrolase, the “Kcat (SAH)” value is 0.1 S^−1 and the Michaelis-Menten constant (Km) worked out at 1 µM.

The values are drawn from patent US6610504B1, “Methods of determining SAM-dependent methyltransferase activity using a mutant SAH hydrolase” (General Atomics, priority 2000, dated 2003).
